Laboratory results reported in PMC6624297 (Cell Death & Disease, 2019).

Experiments:
EGFR kinase = EGFR kinase (Homo sapiens, UniProt P00533); assay: ADP-Glo kinase assay, EGFR; type: biochemical; details: averages from triplicate assays
Procedure: The ADP-Glo™ kinase assay (Promega, Madison, WI) was used to screen target compounds for their inhibition effects for BRaf, EGFR kinase. The kinase assay was carried out in a 96-well plate, in a volume of 25 μL HEPES (pH 7.3) solvent containing 1.6 μg/mL EGF, and 20 ng of EGFR kinase, or 50 ng BRaf kinase, and 10 μM ATP (Promega, Madison, WI). […] Reactions in each well were started immediately by adding ATP and kept going for half an hour under 30 °C in a constant temperature incubator (Bluepard, Shanghai, China). After the plate cooled for 5 min at room temperature, 25 μl of ADP-Glo reagent was added into each well to stop the reaction and consume the remaining […] within 40 min. At the end, 50 μl of kinase detection reagent was added into the well and incubated for 1 h to produce a luminescence signal.

HUVECs = assay: Tube formation in vitro; type: cell-based, human
Procedure: Matrigel was thawed at 4 °C and 50 μL of the solution were added to each well in a 96-well plate and formed a gel at 37 °C for 30 min. HUVECs were suspended at 1 × 10^4 cells in 100 μL of A549 cell supernatant with or without L14e (0, 0.5, 1.0, and 1.5 μM), and then added to each well. After 24h-incubation, the degree of tube formation was determined by counting the number of areas surrounded by tubes contained in 10 random fields, and expressed as mean ± SD. Using Image J for data analysis.

A549 cells = assay: Annexin V/PI staining flow cytometry, A549; type: cell-based, human; details: 24 h
Procedure: The density of the A549 cells and H460 in the logarithmic growth phase was adjusted to 1 × 10^6 cells/mL, and a total of 1 mL of cell suspension and 1 mL of L14e at different concentrations were added into each well with the final compound L14e concentration in each group as 0, 0.5, 1.0, and 1.5 μM. Details are given in Supplementary Materials and Methods.
The density of the A549 cells and H460 in the logarithmic growth phase was adjusted to 1 × 10^6 cells/mL, and then the cell suspension was seeded into a 6-well plate (Becton Dickinson and Company, USA). A total of 1 mL of cell suspension and 1 mL of compound L14e at different concentrations were added into each well with the final compound L14e concentration in each group as 0 μM, 0.5 μM, 1.0 μM, and 1.5μM. After cells were incubated for 24 h at 37 °C, 1 mL of cell suspension per well was collected and centrifuged at 1000 r/min for 10 min at 4°C, and the supernatant was removed. Then, 1 mL of cold PBS was added to the cell pellet, and was shaken lightly to re-suspend the cells. The cells were centrifuged at 1000 r/min at 4 °C for 10 min, and the supernatant was removed. These steps were repeated twice. The cells were re-suspended in 150µL of PBS, 10 µL of fluorescein isothiocyanate (FITC)-labeled Annexin V (Annexin V-FITC) (Promega Corporation, USA) and 5 µL of PI (Promega Corporation, USA) were added. The mixture was gently mixed and incubated in the dark at room temperature for 10 min then stained cells were analyzed using flow cytometry to test the levels of apoptotic cells (Becton Dickinson and Company, USA; FACS Calibur).

HCoEpiC cell line = assay: Selectivity index against HCoEpiC; type: cell-based; details: SI = CC50/IC50
H460 cells = assay: Transwell migration and wound healing, H460; type: cell-based, human; details: H460, 0.5, 1.0, 1.5 μM, 24 h
Procedure: Cell migration ability was measured using transwell chambers (8-μm pore size; Corning Costar, Cambridge, MA, USA). For the transwell assay, A549 and H460 cells suspended in serum-free RPMI-1640 medium containing different concentrations of L14e (0, 0.5, 1.0, and 1.5 μM) were seeded into the upper chamber. The lower chamber contained RPMI-1640 medium supplemented with 20% serum. After 24 h incubation, the filters were fixed in methanol and stained with 0.1% crystal violet. The upper faces of the filters were gently abraded, and the lower faces with cells migrated across the filters were imaged and counted under the microscope. For wound healing assays, cells were placed into 6-well plates and cultured until 100% confluence. An artificial scratch was created using a 200 μL pipette tip. Add serum-free RPMI-1640 medium containing different concentrations of drugs. At 24 h after culturing in serum-free medium, wound closure images were captured in the same field under magnification. Cell healing rates were calculated by the fraction of cell coverage across the line. These experiments were performed in triplicate and repeated three times.

MDA-MB-231 cells = assay: MTT assay MDA-MB-231; type: cell-based; details: Homo sapiens, 24h of treatment, mean ± SD
Procedure: Details are given in Supplementary Materials and Methods. Using probability unit and weighted regression method to calculate the IC50 value of compounds.
Total cells in the logarithmic growth phase were collected, digested using 0.25% pancreatic enzymes, and then diluted into single-cell suspensions using phosphate-buffered solution (PBS). These cells were seeded into 96-well plates at 4× 10^3-5× 10^3 cells per well (100 µL per well) and then A549, H460, OVCAR-3, SGC7901, MDA-MB-231, HCT116 and HepG2 were cultured at 37°Cin an incubator containing 5% CO2. After cell complete attachment, 100 µL of different concentrations of compounds (0.625 μM, 1.25 μM, 2.5μM, 5 μM, 10 μM) were added to the cells after the nutrient solution in each well was discarded, while no compound except 0.1% DMSO was added to cells in the control group; at the same time, each concentration was set up to 5 wells. In addition, 5 wells in each 96-well plate only received 100 µL of nutrient solution as a blank control. The plates were taken out after the cells were incubated with compounds for 24 h, and 20 µL of MTT solution (5 mg/mL) (Wuhan Boster Biotechnology Limited Company, Wuhan, China; item No. AR1156) was added into all the wells. After another time of incubation for 4 h at 37 °C, the nutrient solution in each well was discarded slowly, and 150 µL of DMSO was added to each well. The plates were shaken on a shaking table for 20 min. When the crystals were fully dissolved, the blank wells were used to zero the plate reader. The optical density (OD) of each well was detected at 490 nm. The IC50 value was determined as the concentration of the inhibitor that caused 50% inhibition. Using probability unit and weighted regression method to calculate the IC50 value of compounds.

Chain of EGFR kinase (P00533 25-1210): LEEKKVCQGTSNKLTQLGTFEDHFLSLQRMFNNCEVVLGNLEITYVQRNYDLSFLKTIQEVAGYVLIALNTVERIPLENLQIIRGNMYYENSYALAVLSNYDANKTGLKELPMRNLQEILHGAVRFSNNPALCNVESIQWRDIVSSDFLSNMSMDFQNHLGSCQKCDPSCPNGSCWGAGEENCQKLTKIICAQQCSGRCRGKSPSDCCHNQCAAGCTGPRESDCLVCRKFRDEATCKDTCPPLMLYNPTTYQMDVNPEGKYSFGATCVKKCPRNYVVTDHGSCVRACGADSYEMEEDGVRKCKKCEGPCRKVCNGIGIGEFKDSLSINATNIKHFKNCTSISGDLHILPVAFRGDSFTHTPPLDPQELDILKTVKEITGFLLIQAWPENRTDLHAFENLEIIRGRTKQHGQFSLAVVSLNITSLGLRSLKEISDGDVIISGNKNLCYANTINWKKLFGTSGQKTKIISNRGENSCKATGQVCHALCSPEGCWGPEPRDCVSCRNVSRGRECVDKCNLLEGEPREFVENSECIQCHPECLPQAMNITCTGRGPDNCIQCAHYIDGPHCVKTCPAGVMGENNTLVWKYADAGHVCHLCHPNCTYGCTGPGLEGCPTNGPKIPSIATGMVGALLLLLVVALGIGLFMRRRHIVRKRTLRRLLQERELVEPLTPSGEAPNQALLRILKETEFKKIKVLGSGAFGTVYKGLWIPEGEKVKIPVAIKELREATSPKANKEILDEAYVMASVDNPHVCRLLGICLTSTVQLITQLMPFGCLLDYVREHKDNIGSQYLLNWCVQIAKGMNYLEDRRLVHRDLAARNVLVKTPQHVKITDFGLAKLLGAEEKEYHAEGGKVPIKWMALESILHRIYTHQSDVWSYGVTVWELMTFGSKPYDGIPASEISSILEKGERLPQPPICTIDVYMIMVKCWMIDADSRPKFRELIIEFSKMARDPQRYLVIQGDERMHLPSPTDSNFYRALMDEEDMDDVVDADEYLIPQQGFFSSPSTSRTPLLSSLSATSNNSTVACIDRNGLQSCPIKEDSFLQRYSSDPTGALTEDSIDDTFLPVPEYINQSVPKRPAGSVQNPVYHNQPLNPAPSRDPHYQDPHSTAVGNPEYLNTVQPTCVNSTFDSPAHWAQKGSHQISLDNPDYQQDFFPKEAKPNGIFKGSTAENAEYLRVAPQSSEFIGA

## O=C(Nc1cccc(Cl)c1)Nc1ccccc1NS(=O)(=O)c1c[nH]c(=O)[nH]c1=O [Compound L14e, N'-(3-chlorophenyl)-2-(2,4-dihydroxypyrimidine-5-sulfonamido)phenyl urea]
EGFR kinase
  IC50: 1920 nM
HUVECs; dose-dependent
  expression of phosphorylated VEGFR-2 (Tyr1175) in HUVECs: inhibiting the expression of phosphorylated VEGFR-2
HUVECs; supernatant of A549 cells treated with 0.5, 1.0, 1.5 μM, 24 h
  tube formation of HUVECs: inhibited tube formation
A549 cells; A549, 0.5 μM
  apoptotic rate: 19.3%
  late apoptosis rate (Q2, Annexin V [+] PI [+]): 17.7%
A549 cells; A549, 1.0 μM
  late apoptosis rate (Q2, Annexin V [+] PI [+]): 27.5%
A549 cells; A549, 1.5 μM
  apoptotic rate: 43.5%
  late apoptosis rate (Q2, Annexin V [+] PI [+]): 37.1%
HCoEpiC cell line
  SI (Selectivity index) HCoEpiC: 9.40
H460 cells
  effect on cell migration: significantly inhibited the migration
MDA-MB-231 cells
  IC50: 2600 ± 80 nM
